The DC50 is the concentration at which degradation of the target reaches its halfway point.

SMILES strings stand for the structures. A value given as a limit tells only on which side of the number the result lay.

The first experiment addresses T1, IRAK4 (Homo sapiens, UniProt Q9NWZ3).
T1 construct: endogenous in cells; host or cells: OCI-LY10
T1 sequence (Q9NWZ3 1-460): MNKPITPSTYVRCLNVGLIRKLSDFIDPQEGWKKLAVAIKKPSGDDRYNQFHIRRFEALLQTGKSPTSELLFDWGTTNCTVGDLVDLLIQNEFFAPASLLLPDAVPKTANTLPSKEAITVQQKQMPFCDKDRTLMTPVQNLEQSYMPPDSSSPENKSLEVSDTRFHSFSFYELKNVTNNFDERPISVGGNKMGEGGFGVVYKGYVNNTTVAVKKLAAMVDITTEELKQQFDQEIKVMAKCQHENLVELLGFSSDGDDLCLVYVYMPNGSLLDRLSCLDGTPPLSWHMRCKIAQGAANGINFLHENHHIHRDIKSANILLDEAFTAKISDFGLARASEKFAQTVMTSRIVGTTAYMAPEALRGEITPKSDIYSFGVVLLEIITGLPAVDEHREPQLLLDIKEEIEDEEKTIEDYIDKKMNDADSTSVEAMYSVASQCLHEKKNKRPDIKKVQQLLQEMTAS
Put plainly: IRAK4 MSD Degradation in OCI-LY10. Format: cell-based. The note with it: OCI-LY10 cells, 4 hrs incubation, read-out: IRAK4 degradation in OCI-LY10 at 4 hrs: DC50. Here is the method:
Degradation of IRAK4 in OCI-LY10 was quantitatively measured using Meso Scale Discovery technology. […] Compounds were then added to the assay plates with a final top concentration of 1 to 10 μM in a 1:3 dilution series with total of 8 doses. The assay plates were then incubated for 4 to 24 hours at 37° C. under 5% C02. […] To prepare MSD assay plates (Meso Scale Discovery Catalog number L15XA-3), the plates were coated with […] capture antibody (mouse Anti-IRAK4 antibody [2H9], ab119942) in PBS, at 40 μL/well. […] Cell lysates were then added to MSD assay plates and the plates were incubated at room temperature for 1 hour. The plates were then washed 3 times with 150 μL/well TBST buffer and 25 μL/well primary detection antibody (rabbit Anti-IRAK4 antibody [Y279], from Abcam. Catalog number ab32511, 1 μg/mL). The assay plates were then incubated at room temperature for 1 hour, washed 3 times with 150 μL/well TBST buffer and 25 μL/well secondary detection antibody, SULFO-TAG anti-rabbit antibody were added (anti rabbit antibody from Meso Scale Discovery, Catalog number R32AB-1, 1 μg/mL). The assay plates were then incubated at room temperature for 1 hour, washed 3 times with 150 μL/well TBST buffer, and 150 μL/well MSD reading buffer (Meso Scale Discovery catalog number R92TC-2) was added. The plates were then analyzed by a MSD reader (Meso Scale Discovery, Model Quick Plex SQ 120). The data was then analyzed by software Prism 7.0 from GraphPad and the dose-depended IRAK4 degradation were fit using a three-parameter logistic equation to calculate DC50.
The letter codes for IRAK4 […] include: A (<0.05 μM); B (0.05-0.1 μM); C (0.1-0.5 μM); D (0.5-1.0 μM); and E (>1.0 μM).
On to `Cn1c(=O)n(C2CCC(=O)NC2=O)c2cccc(CC3CC4(CCN(C[C@H]5CC[C@H](n6cc7cc(NC(=O)c8cccc(C(F)(F)F)n8)c(C(C)(C)O)cc7n6)CC5)CC4)C3)c21` (some centres unmarked) [I-56], for which the 50% degradation concentration (DC50) was less than 50 nM.

On to `Cn1c(=O)n(C2CCC(=O)NC2=O)c2cccc(CN3CC4(CCN(C[C@H]5CC[C@H](n6cc7cc(NC(=O)c8cccc(C(F)(F)F)n8)c(C(C)(C)O)cc7n6)CC5)CC4)C3)c21` (some centres unmarked) [I-57], for which the DC50 was less than 50 nM.

As for `Cn1c(=O)n(C2CCC(=O)NC2=O)c2cccc(C#CCCCNC[C@H]3CC[C@H](n4cc5cc(NC(=O)c6cccc(C(F)(F)F)n6)c(C(C)(C)O)cc5n4)CC3)c21` (some centres unmarked) [I-60, N-[2-[4-[[5-[1-(2,6-dioxo-3-piperidyl)-3-methyl-2-oxo-benzimidazol-4-yl]pent-4-ynylamino]methyl]cyclohexyl]-6-(1-hydroxy-1-methyl-ethyl)indazol-5-yl]-6-(trifluoromethyl)pyridine-2-carboxamide], the DC50 was less than 50 nM.

Consider `Cn1c(=O)n(C2CCC(=O)NC2=O)c2ccc(C#CCCCNC[C@H]3CC[C@H](n4cc5cc(NC(=O)c6cccc(C(F)(F)F)n6)c(C(C)(C)O)cc5n4)CC3)cc21` (some centres unmarked) [I-61, N-[2-[4-[[5-[1-(2,6-dioxo-3-piperidyl)-3-methyl-2-oxo-benzimidazol-5-yl]pent-4-ynylamino]methyl]cyclohexyl]-6-(1-hydroxy-1-methyl-ethyl)indazol-5-yl]-6-(trifluoromethyl)pyridine-2-carboxamide], for which the half-maximal degradation concentration (DC50) is less than 50 nM.

For `Cn1c(=O)n(C2CCC(=O)NC2=O)c2cccc(C[C@H]3CC[C@H](N(C)C[C@H]4CC[C@H](n5cc6cc(NC(=O)c7cccc(C(F)(F)F)n7)c(C(C)(C)O)cc6n5)CC4)CC3)c21` (some centres unmarked) [I-62], the DC50 is less than 50 nM.

Take `Cn1c(=O)n(C2CCC(=O)NC2=O)c2cccc(CN3CCC(OC4CCN(C[C@H]5CC[C@H](n6cc7cc(NC(=O)c8cccc(C(F)(F)F)n8)c(C(C)(C)O)cc7n6)CC5)CC4)CC3)c21` (some centres unmarked) [I-66]: the DC50 was less than 50 nM.

As for `CN(CCCC#Cc1ccc2c(c1)n(C)c(=O)n2C1CCC(=O)NC1=O)C[C@H]1CC[C@H](n2cc3cc(NC(=O)c4cccc(C(F)(F)F)n4)c(C(C)(C)O)cc3n2)CC1` (some centres unmarked) [I-67, N-(2-((1r,4r)-4-(((5-(1-(2,6-dioxopiperidin-3-yl)-3-methyl-2-oxo-2,3-dihydro-1H-benzo[d]imidazol-5-yl)pent-4-yn-1-yl)(methyl)amino)methyl)cyclohexyl)-6-(2-hydroxypropan-2-yl)-2H-indazol-5-yl)-6-(trifluoromethyl)picolinamide], the DC50 is less than 50 nM.

Consider `Cn1c(=O)n(C2CCC(=O)NC2=O)c2cccc(CC3CCN(C[C@H]4CC[C@H](n5cc6cc(NC(=O)c7cccc(C(F)(F)F)n7)c(C(F)F)cc6n5)CC4)CC3)c21` (some centres unmarked) [I-72], for which the 50% degradation concentration (DC50) was less than 50 nM.

For the compound `Cn1c(=O)n(C2CCC(=O)NC2=O)c2cccc(C[C@H]3CC[C@H](N(C)C[C@H]4CC[C@H](n5cc6cc(NC(=O)c7cccc(C(F)(F)F)n7)c(C(F)F)cc6n5)CC4)CC3)c21` (some centres unmarked) [I-73], the DC50 was 50 to 100 nM.

Consider `CN(C[C@H]1CC[C@H](n2cc3cc(NC(=O)c4cccc(C(F)(F)F)n4)c(C(C)(C)O)cc3n2)CC1)C1CCC2(CC1)CC(Cc1cccc3c1n(C)c(=O)n3C1CCC(=O)NC1=O)C2` (some centres unmarked) [I-74], for which the DC50 is less than 50 nM.

For `CN(C[C@H]1CC[C@H](n2cc3cc(NC(=O)c4cccc(C(F)(F)F)n4)c(C(C)(C)O)cc3n2)CC1)C1CCN(c2ccc3c(c2)n(C)c(=O)n3C2CCC(=O)NC2=O)CC1` (some centres unmarked) [I-75], the 50% degradation concentration (DC50) is less than 50 nM.

For `CN(C[C@H]1CC[C@H](n2cc3cc(NC(=O)c4cccc(C(F)(F)F)n4)c(C(C)(C)O)cc3n2)CC1)C1CCN(c2cccc3c2n(C)c(=O)n3C2CCC(=O)NC2=O)CC1` (some centres unmarked) [I-80], the half-maximal degradation concentration (DC50) was less than 50 nM.

For `Cn1c(=O)n(C2CCC(=O)NC2=O)c2cccc(CCC3CC4(CCN(C[C@H]5CC[C@H](n6cc7cc(NC(=O)c8ccccn8)c(C(C)(C)O)cc7n6)CC5)CC4)C3)c21` (some centres unmarked) [I-81], the 50% degradation concentration (DC50) was in the range of 50 to 100 nM.

Turning to `CN(C[C@H]1CC[C@H](n2cc3cc(NC(=O)c4ccccn4)c(C(C)(C)O)cc3n2)CC1)C1CCN(c2ccc3c(c2)n(C)c(=O)n3C2CCC(=O)NC2=O)CC1` (some centres unmarked) [I-82], the DC50 was less than 50 nM.

Regarding `CN(C[C@H]1CC[C@H](n2cc3cc(NC(=O)c4cccc(C(F)(F)F)n4)c(C(C)(C)O)cc3n2)CC1)C1CCN(c2ccc3c(c2)n(C2CCC(=O)NC2=O)c(=O)n3C)CC1` (some centres unmarked) [I-83], the 50% degradation concentration (DC50) was in the range of 500 to 1000 nM.

`CN(C[C@H]1CC[C@H](n2cc3cc(NC(=O)c4ccccn4)c(C(C)(C)O)cc3n2)CC1)C1CCN(c2cccc3c2n(C)c(=O)n3C2CCC(=O)NC2=O)CC1` (some centres unmarked) [I-84]: the DC50 is less than 50 nM.

`CN(CCCO[C@H]1C[C@H](Cc2cccc3c2n(C)c(=O)n3C2CCC(=O)NC2=O)C1)C[C@H]1CC[C@H](n2cc3cc(NC(=O)c4cccc(C(F)(F)F)n4)c(C(C)(C)O)cc3n2)CC1` (some centres unmarked) [I-85]: the DC50 was less than 50 nM.

For `CN(C[C@H]1CC[C@H](n2cc3cc(NC(=O)c4ccccn4)c(C(C)(C)O)cc3n2)CC1)C1CCN(c2ccc3c(c2)n(C2CCC(=O)NC2=O)c(=O)n3C)CC1` (some centres unmarked) [I-86], the DC50 fell in the range of 500 to 1000 nM.

Still in this experiment, the particulars now being: OCI-LY10 cells, 24 hrs incubation, read-out: IRAK4 degradation in OCI-LY10 at 24 hrs: DC50.
Take `CN(C[C@H]1CC[C@H](n2cc3cc(NC(=O)c4cccc(C(C)(C)F)n4)c(C(C)(C)O)cc3n2)CC1)[C@H]1CC[C@H](CNc2cccc3c2C(=O)N(C2CCC(=O)NC2=O)C3=O)CC1` (some centres unmarked) [I-58]: the half-maximal degradation concentration (DC50) was 50 to 100 nM.

For `CC(C)(O)c1cc2nn([C@H]3CC[C@H](CN4CCC(COCCCNc5cccc6c5C(=O)N(C5CCC(=O)NC5=O)C6=O)CC4)CC3)cc2cc1NC(=O)c1cccc(C(C)(C)F)n1` (some centres unmarked) [I-59], the 50% degradation concentration (DC50) lay within 50 to 100 nM.

As for `CC(C)(O)c1cc2nn([C@H]3CC[C@H](CN4CCO[C@H](CCCNc5cccc6c5C(=O)N(C5CCC(=O)NC5=O)C6=O)C4)CC3)cc2cc1NC(=O)c1cccc(C(F)(F)F)n1` (some centres unmarked) [I-64], the DC50 is less than 50 nM.

In the case of `CC(C)(O)c1cc2nn([C@H]3CC[C@H](CN4CCO[C@@H](CCNc5cccc6c5C(=O)N(C5CCC(=O)NC5=O)C6=O)C4)CC3)cc2cc1NC(=O)c1cccc(C(F)(F)F)n1` (some centres unmarked) [I-65], the half-maximal degradation concentration (DC50) was less than 50 nM.

For the compound `COc1cc2nn([C@H]3CC[C@H](CN4CCO[C@H](CCCNc5cccc6c5C(=O)N(C5CCC(=O)NC5=O)C6=O)C4)CC3)cc2cc1NC(=O)c1cccc(C(F)(F)F)n1` (some centres unmarked) [I-68], the DC50 fell in the range of 50 to 100 nM.

`COc1cc2nn([C@H]3CC[C@H](CN4CCC(O[C@H]5CC[C@H](CNc6cccc7c6C(=O)N(C6CCC(=O)NC6=O)C7=O)CC5)CC4)CC3)cc2cc1NC(=O)c1cccc(C(F)(F)F)n1` (some centres unmarked) [I-69]: the DC50 lay within 50 to 100 nM.

For the compound `CN(CCCO[C@H]1C[C@H](Nc2cccc3c2C(=O)N(C2CCC(=O)NC2=O)C3=O)C1)C[C@H]1CC[C@H](n2cc3cc(NC(=O)Cc4cccc(C(F)(F)F)n4)c(C(C)(C)O)cc3n2)CC1` (some centres unmarked) [I-70], the 50% degradation concentration (DC50) fell in the range of 500 to 1000 nM.

In the case of `COc1cc2nn([C@H]3CC[C@H](CN4CCO[C@@H](CCNc5cccc6c5C(=O)N(C5CCC(=O)NC5=O)C6=O)C4)CC3)cc2cc1NC(=O)c1cccc(C(F)(F)F)n1` (some centres unmarked) [I-71], the DC50 was in the range of 50 to 100 nM.

On to `COc1cc2nn([C@H]3CC[C@H](CN(C)C4CCN(c5cccc6c5C(=O)N(C5CCC(=O)NC5=O)C6=O)CC4)CC3)cc2cc1NC(=O)c1cccc(C(F)(F)F)n1` (some centres unmarked) [I-76], for which the 50% degradation concentration (DC50) is 100 to 500 nM.

Regarding `COc1cc2nn([C@H]3CC[C@H](CN(C)CCCO[C@H]4C[C@H](Nc5ccc6c(c5)C(=O)N(C5CCC(=O)NC5=O)C6=O)C4)CC3)cc2cc1NC(=O)c1cccc(C(F)(F)F)n1` (some centres unmarked) [I-77], the half-maximal degradation concentration (DC50) was in the range of 50 to 100 nM.

On to `COc1cc2nn([C@H]3CC[C@H](CN4CCC5(CC4)CC(Nc4cccc6c4C(=O)N(C4CCC(=O)NC4=O)C6=O)C5)CC3)cc2cc1NC(=O)c1cccc(C(C)(C)F)n1` (some centres unmarked) [I-78], for which the half-maximal degradation concentration (DC50) was 50 to 100 nM.

As to `CN(CCCn1cc2cc(NC(=O)c3cccc(C(F)(F)F)n3)c(C(C)(C)O)cc2n1)C1CCC2(CC1)CC(Nc1cccc3c1C(=O)N(C1CCC(=O)NC1=O)C3=O)C2` (centres unmarked) [I-79], the DC50 lay in the range of 100 to 500 nM.

Take `CC(C)(O)c1cc2c(cnn2CCN2CCC3(CC2)CC(CCNc2cccc4c2C(=O)N(C2CCC(=O)NC2=O)C4=O)C3)cc1NC(=O)c1cccc(C(F)(F)F)n1` (centres unmarked) [I-87]: the DC50 lay in the range of 500 to 1000 nM.

`COc1cc2nn([C@H]3CC[C@H](CN4CCC5(CCC(Nc6cccc7c6C(=O)N(C6CCC(=O)NC6=O)C7=O)CC5)CC4)CC3)cc2cc1NC(=O)c1cccc(C(C)(C)F)n1` (some centres unmarked) [I-88]: the DC50 was 50 to 100 nM.

Values taken from patent publication US12545659B2, “IRAK degraders and uses thereof” (Kymera Therapeutics, Inc., priority 2019, dated 2026).
